# Experimental data taken from patent US20250312468A1, “ANTI-PROTAC ANTIBODIES AND COMPLEXES” (Merck Patent GmbH, priority 2021, published 2025).
# Tests used:
# MDAMB468 cells = assay: CellTiter-Glo cell viability assay (VHH-based PAX); settings: MDAMB468, PROTAC alone
# Description: (§1) Several cell viability experiments were performed following the procedure described below: Cells were seeded in different media into white cell culture-treated flat and clear bottom multiwell plates followed by overnight incubation in a humid chamber at 37° C. and 5% CO2. Complexation was performed as described in chapter 7.4.
# (§2) The solutions were added to the cells based on the antibody concentration using nanodrop dispension using a Tecan D300e Digital Dispenser and all wells were normalized to the same volume using 0.3% TW20 in PBS pH 7.4 and DMSO to a final solvent concentration of 0.05% DMSO and 0.003% TW20. Incubation was performed at 37° C. at 5% or 10% CO2 dependent on the medium. The assay was developed after 3 days if not otherwise stated using CellTiter-Glo Luminescent Cell Viability Assay as described in the manufacturer's protocol. In brief, the plates were equilibrated to room temperature for 30 minutes. 100 mL CellTiter-Glo Buffer were added to the CellTiter-Glo Substrate Flask and mixed well. 30 μL of the reagent was transferred to each well. After incubation for 3 minutes at room temperature while shaking at 550 rpm, the plate was incubated for another 10 minutes at room temperature. The luminescence was read on an Envision reader from Perkin Elmer. Solvent alone and Bortezomib (1.0E-05 M) served as high control (100% viability) and low control (0% viability), respectively. Raw data were converted into percent cell viability relative to the high and low control, which were set to 100% and 0%, respectively. […] The concentration corresponds to the concentration of PROTACs in the PAX.
# HCC827 = assay: CellTiter-Glo cell viability assay (VHH-based PAX); settings: HCC827, PROTAC alone
# Description: as §1, §2
# A431 = assay: CellTiter-Glo cell viability assay (VHH-based PAX); settings: A431, PROTAC alone
# Description: as §1, §2
# SKOV3 = assay: CellTiter-Glo cell viability assay (VHH-based PAX); settings: SKOV3, PROTAC alone
# Description: as §1, §2
# MCF7 = assay: CellTiter-Glo cell viability assay (VHH-based PAX); settings: MCF7, PROTAC alone
# Description: as §1, §2
# HEPG2 cells = assay: CellTiter-Glo cell viability assay (VHH-based PAX); settings: HEPG2, PROTAC alone
# Description: as §1, §2
# MIC2 = assay: SPR binding of PROTACs to immobilized antibody MIC2; settings: MIC2, 1:1 kinetic binding model
# Description: The binding affinities of hit antibodies MIC1 and MIC2 to a diverse set of VH032-based PROTACs (FIGS. 8A-8B) was determined by surface plasmon resonance (SPR) in a Biacore T200 instrument. The running buffer consist of PBS, 0.05% Tween-20, 2% DMSO and temperature and flow rate were set to 30° C. and 30 μL/min, respectively. The assay setup is depicted exemplarily in FIG. 7A. CM5 sensor chips were coated with antibody (=ligand; 2500 RU) using standard EDC/NHS chemistry. PROTACs (=analytes) were serially diluted (1 μM-1.9 nM) in running buffer, injected to the instrument in consecutive runs and were captured by the antibody resulting in an increase of the corresponding SPR response. After the association step (300 s), running buffer was injected for 600 s and the PROTAC dissociated from the antibody leading to signal decrease. After each run, residual bound PROTAC was removed from the immobilized antibody by injection of 10 mM glycine/HCl, pH 1.5 for 2×30 s regenerating the antibody for the next association and dissociation cycle. To compensate for matrix effects, the measured SPR response signal was subtracted by the analyte response to an inactivated (EDC/NHS, ethanol amine) reference surface omitting the ligand. Furthermore, a DMSO solvent correction was performed and analyte response was subtracted by the running buffer signal. The corrected response was fitted by a 1:1 kinetic binding model yielding the on- (kon) and off-rate (koff) of the PROTAC, as well as its dissociation constant (KD).
# CLL1xMIC7 = assay: SPR affinity of VHH clone (antibody fusion) to PROTACs; settings: CLL1xMIC7 immobilized, 25° C., read-out: KD [M] for antibody binding to PROTAC
# Description: (§3) The kinetic and affinity parameters of protein-PROTAC interactions were evaluated by SPR. The anti-PROTAC VHH clones MIC5-MIC14 were immobilized as CD33 or CLL1 antibody fusion (the manufacturing of fusion proteins and the used linker is described in chapter 7.9) onto a CM5 (Series S) sensor chip via the standard amine coupling procedure, at 25° C. Prior to immobilization, the carboxymethylated surface of the chip was activated with 400 mM 1-ethyl-3-(3-dimethylaminopropyl)-carbodiimide and 100 mM N-hydroxysuccinimide for 7 min. Hit anti-PROTAC VHH as CD33 and CLL1 antibody fusions were diluted to 10 μg/ml in 10 mM Acetate at pH 4.5 and immobilized on the activated surface chip for 7 min, in order to reach 3,000 to 6,000 response units (RU). The remaining activated carboxymethylated groups were blocked with a 10 min injection of 1 M ethanolamine pH 8. HBS-N, which consists of 10 mM HEPES pH 7.4 and 150 mM NaCl, was used as the background buffer during immobilization. PROTACs were prediluted in DMSO, diluted 1:50 in running buffer (12 mM phosphate pH 7.4, 137 mM NaCl, 2.7 mM KCl, 0.05% Tween20, 2% DMSO) and injected at ten different concentrations using two-fold dilution series, from 1 μM to 0.002 μM. A DMSO solvent correction (1%-3%) was performed to account for variations in bulk signal and to achieve high-quality data. Interaction analysis cycles consisted of a 300 sec sample injection (30 μL/min; association phase) followed by 900 sec of buffer flow (dissociation phase).
# (§4) All sensorgrams were processed by first subtracting the binding response recorded from the control surface (reference flow-channel), followed by subtracting of the buffer blank injection from the active flow-channel (target protein immobilized). All datasets were fit to a simple 1:1 Langmuir interaction model to determine the kinetic rate constants. Experiments were performed on a Biacore 8k+ (Cytiva, Uppsala, Sweden) at 25° C. and the interactions were evaluated using the provided Biacore Insight Evaluation software.
# CD33xMIC12 = assay: as above; settings: CD33xMIC12 immobilized, 25° C., read-out: KD [M] for antibody binding to PROTAC
# Description: as §3, §4
# CD33xMIC13 = assay: as above; settings: CD33xMIC13 immobilized, 25° C., read-out: KD [M] for antibody binding to PROTAC
# Description: as §3, §4
# CD33xMIC5 = assay: as above; settings: CD33xMIC5 immobilized, 25° C., read-out: KD [M] for antibody binding to PROTAC
# Description: as §3, §4
# CD33xMIC10 = assay: as above; settings: CD33xMIC10 immobilized, 25° C., read-out: KD [M] for antibody binding to PROTAC
# Description: as §3, §4
SMILES,IC50 (MDAMB468 cells) [µM],IC50 (HCC827) [µM],IC50 (A431) [µM],IC50 (SKOV3) [µM],IC50 (MCF7) [µM],IC50 (HEPG2 cells) [µM],Kd (MIC2) [µM],Kd (CLL1xMIC7) [M],Kd (CD33xMIC12) [M],Kd (CD33xMIC13) [M],Kd (CD33xMIC5) [M],Kd (CD33xMIC10) [M],koff (MIC2),kon (MIC2)
Cc1ncsc1-c1ccc([C@H](C)NC(=O)[C@@H]2C[C@@H](O)CN2C(=O)[C@@H](NC(=O)COCCCOCCNC(=O)C[C@@H]2N=C(c3ccc(Cl)cc3)c3c(sc(C)c3C)-n3c(C)nnc32)C(C)(C)C)cc1 [ARV771],0.049,0.091,0.065,0.032,0.026,0.089,> 1,8.8e-09,5.6e-09,1.3e-08,2.7e-07,1.4e-07,,
Cc1ncsc1-c1ccc(CNC(=O)[C@@H]2C[C@@H](O)CN2C(=O)[C@@H](NC(=O)CCCCCCCCCCNC(=O)c2cc3c(cc2CS(C)(=O)=O)-c2cn(C)c(=O)c4[nH]cc(c24)CN3c2ncc(F)cc2F)C(C)(C)C)cc1 [GNE987],0.00041,0.00077,0.00034,0.00061,0.00015,0.0026,0.0019,< 1e-10,4.2e-08,2.3e-08,9.6e-10,1.3e-08,NM/4.10E−05 1/s,NM/2.20E+04 1/Ms
